Test results: publication PMC6767204, “Synthesis and Biological Evaluation of Disubstituted Pyrimidines as Selective 5-HT2C Agonists” (Molecules, 2019)
Like-named read-outs stand apart in the source and are kept apart here.

Experiments:
5-HT6 receptor = biological target: T1, 5-HT6 receptor (Homo sapiens, UniProt P50406); assay: 5-HT receptor radioligand binding affinity assay, 6; settings: for SI, selectivity index, 6: subtype Ki divided by 5-HT2C Ki
T1 construct: expressed in transfected cells; host or cells: HEK293 or CHO
T1 sequence (P50406 whole entry): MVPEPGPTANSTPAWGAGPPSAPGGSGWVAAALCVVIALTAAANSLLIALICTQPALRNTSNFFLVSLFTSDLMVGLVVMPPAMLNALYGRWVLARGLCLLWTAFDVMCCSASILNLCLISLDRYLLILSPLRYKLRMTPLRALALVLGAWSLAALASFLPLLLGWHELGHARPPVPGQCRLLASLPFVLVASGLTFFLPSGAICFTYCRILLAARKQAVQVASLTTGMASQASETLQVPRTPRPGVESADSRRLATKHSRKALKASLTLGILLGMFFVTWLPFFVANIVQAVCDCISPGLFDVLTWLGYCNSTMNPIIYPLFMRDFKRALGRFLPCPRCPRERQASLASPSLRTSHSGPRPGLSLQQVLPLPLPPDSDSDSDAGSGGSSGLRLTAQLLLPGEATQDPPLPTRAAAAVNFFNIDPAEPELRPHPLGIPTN
Procedure: (§1) Eleven dilutions (5 x assay concentration) of the test and reference compounds (Table S1) were prepared in standard binding buffer (50 mM tris(hydroxymethyl)-aminomethane–HCl (Tris-HCl), 10 mM MgCl2, 1 mM ethylenediaminetetraacetate (EDTA), pH 7.4) by serial dilution: 0.05 nM, 0.5 nM, 1.5 nM, 5 nM, 15 nM, 50 nM, 150 nM, 500 nM, 1.5 μM, 5 μM, and 50 μM. The radioligand (Table S1) was diluted to five times the assay concentration in standard binding buffer. Aliquots (50 μL) of the radioligand were dispensed into the wells of a 96-well plate containing 100 μL of standard binding buffer. Triplicate aliquots (50 μL) of the test and reference compound dilutions were then added. Finally, crude membrane fractions (50 μL) of cells (HEK293 or CHO) expressing human recombinant receptors were dispensed into each well. A total 250 μL of the reaction mixtures was incubated at room temperature and shielded from light for 1.5 h, then harvested by rapid filtration onto Whatman GF/B glass fiber filters presoaked with 0.3% polyethyleneimine, by using a 96-well Brandel harvester.
(§2) Four rapid washes were performed with chilled standard binding buffer (500 μL) to decrease nonspecific binding. Filters were placed in 6 mL scintillation tubes and allowed to dry overnight. The next day, 4 ml of EcoScint scintillation cocktail (National Diagnostics) was added to each tube. The tubes were capped, labeled, and counted by liquid scintillation counting. The filter mats were dried, and the scintillant was melted onto the filters, then the radioactivity retained on the filters was counted in a Microbeta scintillation counter. The IC50 values were obtained by using the Prism 4.0 program (GraphPad Software, San Diego, CA) and converted into Ki values. Each compound was tested in triplicate at least.
(§3) 3. Radioligands and reference compounds for binding assay
(§4) Table S1. A list of 5-HT receptor radioligands and reference compounds for binding assay.
(§5) Receptor subtype Radioligand Reference compound
(§6) 1A [3H]8-OH-DPAT Methysergide
(§7) 2A [3H]Ketanserin Chlorpromazine
(§8) 2C [3H]Mesulergine Chlorpromazine

5-HT5A receptor = biological target: T2, 5-HT5A receptor (Homo sapiens, UniProt P47898); assay: 5-HT receptor radioligand binding affinity assay, 5A
T2 construct: expressed in transfected cells; host or cells: HEK293 or CHO
T2 sequence (P47898 whole entry): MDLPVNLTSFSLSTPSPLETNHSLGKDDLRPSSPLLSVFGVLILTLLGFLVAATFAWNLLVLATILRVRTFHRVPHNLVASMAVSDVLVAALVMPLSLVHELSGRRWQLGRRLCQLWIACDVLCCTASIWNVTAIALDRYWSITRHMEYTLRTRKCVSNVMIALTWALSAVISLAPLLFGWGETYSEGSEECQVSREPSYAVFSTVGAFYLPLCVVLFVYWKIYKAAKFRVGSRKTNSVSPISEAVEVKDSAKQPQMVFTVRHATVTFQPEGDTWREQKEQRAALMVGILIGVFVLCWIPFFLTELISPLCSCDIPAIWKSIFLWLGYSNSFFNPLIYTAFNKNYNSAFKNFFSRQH
Procedure: as §1, §2, §3
(§9) Table S1. A list of 5-HT receptor radioligands and reference compounds for binding assay. […]

5-HT2C receptor [1] = biological target: T3, 5-HT2C receptor (Homo sapiens, UniProt P28335); assay: 5-HT2C receptor cell-based functional assay (agonist mode, fluorescence-based); settings: Table 2; serotonin as reference compound
T3 sequence (P28335 33-458): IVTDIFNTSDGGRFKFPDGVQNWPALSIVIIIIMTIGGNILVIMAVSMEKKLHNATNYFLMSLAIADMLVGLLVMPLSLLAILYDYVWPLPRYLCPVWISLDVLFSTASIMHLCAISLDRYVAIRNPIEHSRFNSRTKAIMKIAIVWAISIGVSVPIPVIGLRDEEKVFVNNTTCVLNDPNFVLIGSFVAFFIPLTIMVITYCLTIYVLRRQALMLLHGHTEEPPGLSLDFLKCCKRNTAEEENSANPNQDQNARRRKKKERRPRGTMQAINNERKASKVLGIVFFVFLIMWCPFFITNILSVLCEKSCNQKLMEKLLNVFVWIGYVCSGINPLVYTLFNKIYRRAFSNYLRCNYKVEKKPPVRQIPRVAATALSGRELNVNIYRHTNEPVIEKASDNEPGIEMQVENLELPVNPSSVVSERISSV
Procedure: The synthesized compounds were tested in agonist mode with the 5-HT2C receptor assay using recombinant human HEK-293 cells serviced by either Eurofins Cerep or DGMIF (Daegu-Gyeongbuk Medical Innovation Foundation). All the experiments were duplicated.

5-HT1E receptor = biological target: T4, 5-HT1E receptor (Homo sapiens, UniProt P28566); assay: 5-HT receptor radioligand binding affinity assay, 1E
T4 construct: expressed in transfected cells; host or cells: HEK293 or CHO
T4 sequence (P28566 whole entry): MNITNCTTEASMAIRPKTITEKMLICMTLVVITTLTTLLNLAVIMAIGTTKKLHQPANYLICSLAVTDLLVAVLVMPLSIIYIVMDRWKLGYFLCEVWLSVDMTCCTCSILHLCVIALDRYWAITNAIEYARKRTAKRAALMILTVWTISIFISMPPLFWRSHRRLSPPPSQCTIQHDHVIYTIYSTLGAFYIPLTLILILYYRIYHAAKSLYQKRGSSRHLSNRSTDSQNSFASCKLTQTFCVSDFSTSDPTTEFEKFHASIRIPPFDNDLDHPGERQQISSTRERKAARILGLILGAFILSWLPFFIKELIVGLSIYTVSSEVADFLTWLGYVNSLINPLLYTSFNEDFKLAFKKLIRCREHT
Procedure: as §1, §2, §3, §9

5-HT2A receptor [2] = biological target: T5, 5-HT2A receptor (Homo sapiens, UniProt P28223); assay: 5-HT receptor radioligand binding affinity assay, 2A; settings: for SI, selectivity index, 2A: subtype Ki divided by 5-HT2C Ki
T5 construct: expressed in transfected cells; host or cells: HEK293 or CHO
T5 sequence (P28223 whole entry): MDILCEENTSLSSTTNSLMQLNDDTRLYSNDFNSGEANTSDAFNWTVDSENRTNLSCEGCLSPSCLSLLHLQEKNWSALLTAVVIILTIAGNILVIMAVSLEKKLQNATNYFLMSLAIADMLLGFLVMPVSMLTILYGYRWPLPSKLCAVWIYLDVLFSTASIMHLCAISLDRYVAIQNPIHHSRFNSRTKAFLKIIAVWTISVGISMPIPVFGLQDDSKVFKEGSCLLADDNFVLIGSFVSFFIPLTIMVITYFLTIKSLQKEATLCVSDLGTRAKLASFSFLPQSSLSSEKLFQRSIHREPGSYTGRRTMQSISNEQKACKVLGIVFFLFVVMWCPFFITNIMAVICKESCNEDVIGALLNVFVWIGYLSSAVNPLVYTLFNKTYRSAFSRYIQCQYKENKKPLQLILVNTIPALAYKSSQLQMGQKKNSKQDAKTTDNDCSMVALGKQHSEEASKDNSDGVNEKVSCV
Procedure: as §1, §2, §3, §4, §5, §6, §7, §8

[3] = test system: five human CYP450 isozymes; assay: CYP inhibition, all tested isozymes; settings: all the tested CYP isozymes
Procedure: CYP inhibition values against five human CYP450 isozymes were recorded as % remaining activity values of the given isozymes.
After incubation at 37 °C for 5 min, NADPH generation system solution was also added and incubated at 37 °C for 15 min again. To terminate the reaction, acetonitrile including internal standard (Terfenadine) was added, and the solution was centrifuged for 5 min (14,000 rpm, 4 °C).

5-HT2C receptor [4] = biological target: T3, 5-HT2C receptor; assay: 5-HT receptor radioligand binding affinity assay, 2C; parameters: expressed in transfected cells; settings: for %Binding at 10 μM, 2C: Table 3; for %binding / Ki: Table 2; for SI, selectivity index, 2C: subtype Ki divided by 5-HT2C Ki
Procedure: as §1, §2, §3, §4, §5, §6, §7, §8

5-HT3 receptor = biological target: T6, 5-HT3 receptor (Homo sapiens, UniProt P46098); assay: 5-HT receptor radioligand binding affinity assay, 3; settings: for SI, selectivity index, 3: subtype Ki divided by 5-HT2C Ki
T6 construct: expressed in transfected cells; host or cells: HEK293 or CHO
T6 sequence (P46098 24-478): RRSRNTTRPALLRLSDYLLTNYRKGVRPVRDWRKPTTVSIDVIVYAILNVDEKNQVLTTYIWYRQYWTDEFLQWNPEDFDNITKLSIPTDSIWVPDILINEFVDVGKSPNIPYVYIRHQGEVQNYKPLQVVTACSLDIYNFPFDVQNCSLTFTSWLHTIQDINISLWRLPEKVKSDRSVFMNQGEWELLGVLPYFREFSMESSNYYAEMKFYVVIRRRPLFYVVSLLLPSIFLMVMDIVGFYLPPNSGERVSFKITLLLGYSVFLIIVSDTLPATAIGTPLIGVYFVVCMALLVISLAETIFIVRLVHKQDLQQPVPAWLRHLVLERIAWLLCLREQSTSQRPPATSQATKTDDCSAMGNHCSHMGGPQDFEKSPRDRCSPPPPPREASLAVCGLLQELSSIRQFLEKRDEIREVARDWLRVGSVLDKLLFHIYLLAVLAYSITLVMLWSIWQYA
Procedure: as §1, §2, §3, §4, §5, §6, §7, §8

5-HT2B receptor = biological target: T7, 5-HT2B receptor (Homo sapiens, UniProt P41595); assay: 5-HT receptor radioligand binding affinity assay, 2B; settings: for SI, selectivity index, 2B: subtype Ki divided by 5-HT2C Ki
T7 construct: expressed in transfected cells; host or cells: HEK293 or CHO
T7 sequence (P41595 whole entry): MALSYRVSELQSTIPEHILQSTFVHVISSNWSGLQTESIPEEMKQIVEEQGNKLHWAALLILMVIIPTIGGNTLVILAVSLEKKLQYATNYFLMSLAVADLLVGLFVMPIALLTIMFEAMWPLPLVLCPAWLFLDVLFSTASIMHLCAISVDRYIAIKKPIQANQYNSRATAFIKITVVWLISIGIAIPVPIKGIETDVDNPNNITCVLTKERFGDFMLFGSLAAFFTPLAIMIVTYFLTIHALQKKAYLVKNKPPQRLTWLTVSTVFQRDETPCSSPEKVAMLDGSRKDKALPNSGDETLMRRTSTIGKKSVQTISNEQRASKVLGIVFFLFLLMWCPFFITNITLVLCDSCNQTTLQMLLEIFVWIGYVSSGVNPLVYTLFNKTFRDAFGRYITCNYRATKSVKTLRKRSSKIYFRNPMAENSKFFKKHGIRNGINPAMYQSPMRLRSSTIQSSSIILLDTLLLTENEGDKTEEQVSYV
Procedure: as §1, §2, §3, §4, §5, §6, §7, §8

5-HT1A receptor = biological target: T8, 5-HT1A receptor (Homo sapiens, UniProt P08908); assay: 5-HT receptor radioligand binding affinity assay, 1A; settings: for SI, selectivity index, 1A: subtype Ki divided by 5-HT2C Ki
T8 construct: expressed in transfected cells; host or cells: HEK293 or CHO
T8 sequence (P08908 1-422): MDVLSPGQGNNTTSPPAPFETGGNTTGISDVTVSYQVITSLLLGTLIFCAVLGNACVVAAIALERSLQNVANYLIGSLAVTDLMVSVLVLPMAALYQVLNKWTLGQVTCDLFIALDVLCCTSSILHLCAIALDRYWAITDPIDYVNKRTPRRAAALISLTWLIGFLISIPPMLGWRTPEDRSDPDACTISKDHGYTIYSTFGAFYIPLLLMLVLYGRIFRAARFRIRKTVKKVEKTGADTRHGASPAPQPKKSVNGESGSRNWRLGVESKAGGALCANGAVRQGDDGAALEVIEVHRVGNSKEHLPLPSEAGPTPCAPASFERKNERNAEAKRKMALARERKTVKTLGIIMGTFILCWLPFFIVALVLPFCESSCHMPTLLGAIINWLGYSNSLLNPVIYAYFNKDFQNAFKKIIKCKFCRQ
Procedure: as §1, §2, §3, §4, §5, §6, §7, §8

5-HT7 receptor = biological target: T9, 5-HT7 receptor (Homo sapiens, UniProt P34969); assay: 5-HT receptor radioligand binding affinity assay, 7; settings: for SI, selectivity index, 7: subtype Ki divided by 5-HT2C Ki
T9 construct: expressed in transfected cells; host or cells: HEK293 or CHO
T9 sequence (P34969 whole entry): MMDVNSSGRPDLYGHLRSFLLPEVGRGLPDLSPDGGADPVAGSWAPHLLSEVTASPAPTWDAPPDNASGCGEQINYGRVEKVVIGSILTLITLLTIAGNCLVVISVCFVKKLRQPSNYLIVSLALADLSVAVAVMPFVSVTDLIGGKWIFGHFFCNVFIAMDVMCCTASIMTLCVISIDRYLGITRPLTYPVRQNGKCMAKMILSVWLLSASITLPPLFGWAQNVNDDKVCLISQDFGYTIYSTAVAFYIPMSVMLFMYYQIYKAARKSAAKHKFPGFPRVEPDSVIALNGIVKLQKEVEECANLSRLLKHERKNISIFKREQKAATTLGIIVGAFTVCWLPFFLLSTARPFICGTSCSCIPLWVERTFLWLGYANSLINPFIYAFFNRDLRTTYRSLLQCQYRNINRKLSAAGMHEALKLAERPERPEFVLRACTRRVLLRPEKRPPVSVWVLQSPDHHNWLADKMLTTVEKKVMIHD
Procedure: as §1, §2, §3, §4, §5, §6, §7, §8

5-HT1B receptor = biological target: T10, 5-HT1B receptor (Homo sapiens, UniProt P28222); assay: 5-HT receptor radioligand binding affinity assay, 1B
T10 construct: expressed in transfected cells; host or cells: HEK293 or CHO
T10 sequence (P28222 whole entry): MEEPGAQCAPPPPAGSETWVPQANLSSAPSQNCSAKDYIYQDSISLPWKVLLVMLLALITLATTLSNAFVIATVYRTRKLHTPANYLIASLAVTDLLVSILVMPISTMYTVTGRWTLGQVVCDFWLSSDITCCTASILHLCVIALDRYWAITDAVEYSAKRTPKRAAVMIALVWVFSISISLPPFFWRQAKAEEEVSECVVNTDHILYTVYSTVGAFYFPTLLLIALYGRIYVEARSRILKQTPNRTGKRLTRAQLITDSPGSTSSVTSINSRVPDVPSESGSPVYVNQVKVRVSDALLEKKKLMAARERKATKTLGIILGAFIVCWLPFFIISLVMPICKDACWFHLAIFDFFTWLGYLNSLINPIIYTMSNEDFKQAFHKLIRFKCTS

5-HT1D receptor = biological target: T11, 5-HT1D receptor (Homo sapiens, UniProt P28221); assay: 5-HT receptor radioligand binding affinity assay, 1D; settings: for SI, selectivity index, 1D: subtype Ki divided by 5-HT2C Ki
T11 construct: expressed in transfected cells; host or cells: HEK293 or CHO
T11 sequence (P28221 whole entry): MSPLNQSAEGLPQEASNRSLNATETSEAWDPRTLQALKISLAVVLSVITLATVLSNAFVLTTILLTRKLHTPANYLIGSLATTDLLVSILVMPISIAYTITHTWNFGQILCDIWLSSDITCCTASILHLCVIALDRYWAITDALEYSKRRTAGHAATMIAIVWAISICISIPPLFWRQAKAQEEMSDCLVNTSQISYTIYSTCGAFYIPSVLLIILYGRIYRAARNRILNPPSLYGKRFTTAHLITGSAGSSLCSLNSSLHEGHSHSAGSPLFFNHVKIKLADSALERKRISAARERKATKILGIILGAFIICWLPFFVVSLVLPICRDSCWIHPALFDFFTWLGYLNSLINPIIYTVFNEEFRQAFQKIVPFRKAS
Procedure: as §1, §2, §3, §4, §5, §6, §7, §8

Plasma stability = type: in vitro ADME; settings: human plasma, 37 °C
Microsomal stability = type: in vitro ADME; settings: pH 7.4, human liver microsomes, read-out: HLM %Remaining @ 1 μM after 0.5 h
Procedure: To human liver microsomes (0.5 mg/mL) were added 0.1 M phosphate buffer (pH 7.4) and tested compounds (1 μM).

5-HT2A receptor [5] = biological target: T5, 5-HT2A receptor; parameters: method as in PMID 28846591; settings: Figure 2; cited from earlier work

Compound | Ki (5-HT6 receptor) [nM] | %Binding at 10 μM, 6 (5-HT6 receptor) [%] | SI, selectivity index, 6 (5-HT6 receptor) | %Binding at 10 μM, 5A (5-HT5A receptor) | %Binding at 10 μM, 1E (5-HT1E receptor) | Ki (5-HT2A receptor [2]) [nM] | %Binding at 10 μM, 2A (5-HT2A receptor [2]) [%] | SI, selectivity index, 2A (5-HT2A receptor [2]) | %binding (5-HT2C receptor [4]) [%] | Ki (5-HT2C receptor [4]) [nM] | SI, selectivity index, 2C (5-HT2C receptor [4]) | Ki (5-HT3 receptor) [nM] | %Binding at 10 μM, 3 (5-HT3 receptor) [%] | SI, selectivity index, 3 (5-HT3 receptor) | Ki (5-HT2B receptor) [nM] | %Binding at 10 μM, 2B (5-HT2B receptor) [%] | SI, selectivity index, 2B (5-HT2B receptor) | Ki (5-HT1A receptor) [nM] | %Binding at 10 μM, 1A (5-HT1A receptor) [%] | SI, selectivity index, 1A (5-HT1A receptor) | other results
C[C@@H](Oc1nc(N2CCCNCC2)ncc1F)c1cccc(F)c1 [10a, (R)-1-(5-fluoro-4-(1-(3-fluorophenyl)ethoxy)pyrimidin-2-yl)-1,4-diazepane] | 348 | 50.7 | 44.1 | 22.5 /ND % | 43.1 /ND^b % | 1280 | 75.5 | 162.5 | 81.3 | 7.9 | 1.0 | 323 | 89.0 | 40.9 | 83 | 98.0 | 10.5 | 578 | 74.1 | 73.2 | %activation (5-HT2C receptor [1]): 81.0%; %remaining activity of isozymes [3]: > 60%; %Binding at 10 μM, 2C (5-HT2C receptor [4]): 81.3%; selectivity for other 5-HT receptor subtypes, difference in potency (5-HT2C receptor [4]; 5-HT2C versus other 5-HT receptor subtypes): greater than 10 fold; Ki (5-HT7 receptor): 1020 nM; %Binding at 10 μM, 7 (5-HT7 receptor): 61.3%; SI, selectivity index, 7 (5-HT7 receptor): 128.6; Ki (5-HT1B receptor): 3240 nM; %Binding at 10 μM, 1B (5-HT1B receptor): 56.1%; SI, selectivity index, 1B (5-HT1B receptor; subtype Ki divided by 5-HT2C Ki): 409.7; Ki (5-HT1D receptor): 679 nM; %Binding at 10 μM, 1D (5-HT1D receptor): 71.4%; SI, selectivity index, 1D (5-HT1D receptor): 85.9; remaining at 0.5 h, 10 μM (Plasma stability; 0.5 h, read-out: Plasma Stability %Remaining @ 10 μM after 0.5 h): 99.9%; remaining at 2 h, 10 μM (Plasma stability; 2 h, read-out: Plasma Stability %Remaining @ 10 μM after 2 h): 98%; remaining at 0.5 h, 1 μM (Microsomal stability): 96.6%
C[C@@H](Oc1nc(N2CCCNCC2)ncc1F)c1ccc(F)cc1 [10f, (R)-1-(5-fluoro-4-(1-(4-fluorophenyl)ethoxy)pyrimidin-2-yl)-1,4-diazepane] | 467 | 56.5 | 24.6 | 15.2 /ND % | 31.3 /ND^b % | 2860 | 52.9 | 150.7 | 93.9 | 19 | 1.0 | 415 | 88.0 | 21.8 | 118 | 95.0 | 6.2 | 1070 | 67.6 | 56.1 | %activation (5-HT2C receptor [1]): 52.4%; Ki (5-HT7 receptor): 616 nM; %Binding at 10 μM, 7 (5-HT7 receptor): 55.4%; SI, selectivity index, 7 (5-HT7 receptor): 32.4; %Binding at 10 μM, 1B (5-HT1B receptor): 19.2 /ND^b %; Ki (5-HT1D receptor): 937 nM; %Binding at 10 μM, 1D (5-HT1D receptor): 81.3%; SI, selectivity index, 1D (5-HT1D receptor): 49.3
C[C@@H]1CNCCN1c1ncc(F)c(O[C@H](C)c2ccc(F)cc2)n1 [compound 8, reference compound] | 30 | 56.7 | 5.1 | 18.5 /ND^b % | 48.0 /ND^b % | 511 | 85.3 | 86.6 | 89.0 | 5.9 | 1.0 | 543 | 83.4 | 92.0 | 38 | 98.1 | 6.4 | 271 | 89.1 | 45.9 | Ki (5-HT2A receptor [5]): 1280 nM; %Binding at 10 μM, 2C (5-HT2C receptor [4]): 89.0%; Ki (5-HT7 receptor): 528 nM; %Binding at 10 μM, 7 (5-HT7 receptor): 63.4%; SI, selectivity index, 7 (5-HT7 receptor): 89.5; %Binding at 10 μM, 1B (5-HT1B receptor): 4.9 /ND^b %; Ki (5-HT1D receptor): 1050 nM; %Binding at 10 μM, 1D (5-HT1D receptor): 83.4%; SI, selectivity index, 1D (5-HT1D receptor): 178.3
